Assay results taken from ChEMBL document CHEMBL1145324, “Design, synthesis, and biochemical evaluation of novel cruzain inhibitors with potential application in the treatment of Chagas' disease” (Bioorg Med Chem Lett, 2006).

Target: Cruzipain (Trypanosoma cruzi, UniProt P25779)
Test: Inhibition of Trypanosoma cruzi recombinant cruzain

Cruzipain, sequence (P25779 whole entry): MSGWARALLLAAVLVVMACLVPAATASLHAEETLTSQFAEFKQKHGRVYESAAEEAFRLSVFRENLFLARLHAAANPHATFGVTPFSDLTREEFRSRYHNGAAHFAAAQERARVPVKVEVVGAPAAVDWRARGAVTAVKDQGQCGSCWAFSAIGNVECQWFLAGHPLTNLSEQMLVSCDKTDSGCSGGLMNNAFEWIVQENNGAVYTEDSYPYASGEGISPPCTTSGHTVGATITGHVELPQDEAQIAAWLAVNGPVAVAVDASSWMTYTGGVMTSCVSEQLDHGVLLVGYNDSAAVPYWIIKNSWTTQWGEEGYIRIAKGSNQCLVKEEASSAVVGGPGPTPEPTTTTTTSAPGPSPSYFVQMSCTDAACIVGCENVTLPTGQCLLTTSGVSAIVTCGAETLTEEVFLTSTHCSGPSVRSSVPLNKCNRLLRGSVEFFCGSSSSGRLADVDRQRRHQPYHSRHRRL

SMILES	IC50
NC(=S)N/N=C1\CCS(=O)(=O)c2ccccc21	> 20 µM
C/C(=N/NC(N)=S)C1=CCCc2ccccc21	> 20 µM
NC(=S)N/N=C1/CCC(c2ccc(Br)cc2)C1 (configuration not stated)	> 5 µM
NC(=S)N/N=C1/CCCC(c2ccc(Br)cc2)C1 (configuration not stated)	> 7 µM
NC(=S)N/N=C1\CCc2ccccc2O1	> 16 µM
C=CC(=O)C1=CCCc2ccc(Br)cc21	0.8 µM
NC(=S)N/N=C1\CCc2ccccc21	> 17 µM
NC(=S)N/N=C1\CCOc2ccccc21	> 17 µM
CC/C(=N\NC(N)=S)c1cccc(O)c1	> 33 µM
NC(=S)N/N=C1\CCOc2ccc(Br)cc21	0.11 µM
CC/C(=N\NC(N)=S)c1cccc(N)c1	> 3.64 µM
CC(=O)C1=CCCc2ccccc21	1.36 µM
